From ChEMBL document CHEMBL1129800, “Cycloalkylpyranones and cycloalkyldihydropyrones as HIV protease inhibitors: exploring the impact of ring size on structure-activity relationships” (J Med Chem, 1996)

What was measured:
[1] = biological target: Human immunodeficiency virus type 1 protease (Human immunodeficiency virus 1, UniProt Q72874); assay: Binding affinity towards HIV protease was determined
H9 [2] = assay: Effective dose for antiviral activity against HIV-1-infected H-9 cells; type: functional; conditions: Homo sapiens, read-out: ED50 (the source's name)
H9 [3] = assay: Compound at 3 uM was tested for antiviral activity against HIV-1-infected H-9 cells; type: functional; conditions: Homo sapiens

| Ki [1] [nM] | EC50 (H9 [2]) [nM] | Compound | inhibition at 3 µM (H9 [3]) [%] |
| --- | --- | --- | --- |
| 800 | – | CCC(c1ccccc1)c1c(O)c2ccccc2oc1=O (stereo unspecified) [PHENPROCOUMON] | – |
| 0.2 | 2500 | CC(C)(C)C(C1=C(O)OC2CCCCCCC2C1=O)c1cccc(NS(=O)(=O)c2ccc(C#N)cc2)c1 (stereo unspecified) | – |
| 15 | – | CCC(C1=C(O)OC2CCCCC2C1=O)c1cccc(NS(=O)(=O)c2ccc(C#N)cc2)c1 (stereo unspecified) | < 10 |
| > 1200 | – | CCC(C1=C(O)OC2CCCCCC2C1=O)c1ccccc1 (stereo unspecified) | – |
| 0.075 | 8600 | CCC(c1cccc(NS(=O)(=O)c2ccc(C#N)cn2)c1)c1c(O)c2c(oc1=O)CCC2 (stereo unspecified) | – |
| 1100 | – | CCC(c1ccccc1)c1c(O)c2c(oc1=O)CCCC2 (stereo unspecified) | – |
| 0.05 | 950 | CCC(C1=C(O)C2CCCCC2OC1=O)c1cccc(NS(=O)(=O)c2ccc(C#N)cn2)c1 (stereo unspecified) | – |
| 1200 | – | CCC(C1=C(O)OC2CCCCCCC2C1=O)c1ccccc1 (stereo unspecified) | – |
| 670 | – | CCC(C1=C(O)OC2CCCCC2C1=O)c1ccccc1 (stereo unspecified) | – |
| 700 | – | CCC(c1ccccc1)c1c(O)c2c(oc1=O)CCC2 (stereo unspecified) | – |
| > 2000 | – | CCC(c1ccccc1)c1c(O)c2c(oc1=O)CCCCCCC2 (stereo unspecified) | – |
| > 2000 | – | CCC(C1=C(O)OC2CCCC2C1=O)c1ccccc1 (stereo unspecified) | – |
